Experimental data from patent publication EP4732907A1, “STYRYL BENZOTHIAZOLIUM SALTS AND ITS USES AGAINST PARASITIC INFECTIONS” (priority 2024, dated 2026).

What was measured:
Assay type in all cases: cell-based
[1] = system: L. major promastigotes (LucRE9); assay: In vitro antileishmanial activity against Leishmania major promastigotes (MTT-based assay, 72 h); settings: Table 3; for IC50: Leishmania major, promastigotes, 72 h, MTT
Method: Parasite culture: L. major promastigotes (LucRE9) were cultured at 28 °C in 5% CO2 in modified RPMI-1640 medium (Invitrogen, Carlsbad, CA) with 10% hiFBS.
The anti-leishmanial activity of the compounds was determined using MTT-based assay (Sigma-Aldrich) (Antimicrob Agents Chemother 2011, 55, 3838-3844). The stock solutions of the compounds were prepared in DMSO with a final DMSO percentage in each well maintained below 1%. 4 × 10^6 parasites per mL were incubated at 28 °C in 96-well plates (50 µL/well) either alone or in the presence of increasing concentration of compounds DMSO for 72 h. After the incubation period, 10 µL of MTT (5 mg/ml) was added to each well and parasites were incubated for 4 h at 28°C. Subsequently, cell lysis was performed using 50 µL/well of 20% SDS. The plate was then incubated at 37 °C for an additional hour and then absorbance was measured at a wavelength of 540 using an Infinite F200 plate reader (TECAN Austria, GmbH). The IC50 was calculated as described above. Data were presented as the average of at least three independent measurements, each conducted in triplicate conditions.

MRC-5 cell line = assay: Cytotoxicity assay in MRC-5 cell line (alamarBlue assay, 72 h); settings: Homo sapiens, MRC5, Table 3
Method: Cell culture: Cell culture media were purchased from Gibco (Grand Island, NY, USA). Fetal bovine serum (FBS) was a product of Harlan-Seralab (Belton, U.K.). Supplements and other chemicals not listed in this section were obtained from Sigma Chemicals Co. (St. Louis, Mo., USA). Plastics for cell culture were supplied by Thermo Scientific™ BioLite. All tested compounds were dissolved in DMSO at a concentration of 10 mg/mL and stored at -20°C until use. Cell lines were maintained in Dulbecco's modified Eagle's medium (DMEM) containing glucose (1 g/L), glutamine (2 mM), penicillin (50 IU/mL), streptomycin (50 µg/mL) and amphotericin (1.25 µg/mL), supplemented with 10% FBS.
The stock solutions of the compounds were prepared in DMSO, with the final DMSO concentration in each well maintained below 1%. […] Subsequently, the compounds were added at various concentrations ranging from 0 to 100 µM, and the plates were incubated for 72 h. After the incubation period, 20 µL of resazurin solution (110 ng/ml) were added to each well and cells were incubated for 4 h. Then, cells were lysed with 50 µL/well of 3% SDS. The plate was incubated at 37 °C for an additional hour and subsequently, the fluorescence intensity was measure at the Infinite F200 plate reader (TECAN Austria, GmbH), exciting at 550 nm and recording the emission at 590 nm. […] Data are presented as the average of at least three independent measurements, each conducted in triplicate conditions.

[2] = system: Leishmania major amastigotes; assay: In vitro antileishmanial activity against Leishmania major amastigotes in THP1 cells (luciferase assay, 72 h); settings: Table 4
Method: The antiparasitic activity of the compounds against the intracellular form of Leishmania major was evaluated using the Luciferase Assay System kit from Promega. […] Post-differentiation, the cells were washed and fresh medium was added (100 µL/well) before being reincubated. […] The plates were then incubated at 35°C in 5% CO2. After 24 hours, the wells were washed three times with PBS, and fresh medium with increasing concentrations of compounds was added (100 µL/well). After another 72 hours of incubation, the cells were then treated with 25 µL of lysis buffer and stored at -80°C. Following 24 hours, 25 µL of luciferase enzyme substrate was added to each well, and the luciferase activity of the amastigotes was determined using a TECAN Infinite F200 microplate reader. […] Data represent the average of three independent experiments, each conducted in triplicate.

[3] = system: Bloodstream forms (BSF) of T. brucei brucei 'single marker' S427 (S16); assay: In vitro antitrypanosomal activity against Trypanosoma brucei (alamarBlue assay, 72 h); settings: Table 3; IC50 MRC-5 / IC50 T.brucei
Source text: Data were presented as the average of at least three independent measurements, each conducted in triplicate conditions.

[4] = system: THP1 cells (human monocytic cell line); assay: Cytotoxicity assay on PMA-differentiated THP1 (alamarBlue assay, 72 h); settings: THP-1, Table 4, PMA-differentiated THP1, 72 h
Method: Post-differentiation, the cells were washed and fresh medium was added (100 µL/well) before being reincubated. […] Data represent the average of three independent experiments, each conducted in triplicate.

| SMILES | IC50 [1] | IC50 (MRC-5 cell line) | IC50 ([2]; Leishmania major, THP-1, intracellular amastigotes in THP1 macrophages, 72 h, read-out: IC50 (uM) L. major) | Selectivity Index (SI) MRC-5 ([2]; IC50 MRC-5 / IC50 L.major amastigotes) | Selectivity Index (SI) THP-1 ([2]; IC50 THP-1 / IC50 L. major amastigotes) | Selectivity Index (SI) L.major ([1]; IC50 MRC-5 / IC50 L.major promastigotes) | Selectivity Index (SI) T.brucei [3] | IC50 [4] |
| --- | --- | --- | --- | --- | --- | --- | --- | --- |
| CN(C)c1ccc(/C=C/c2sc3ccccc3[n+]2C)cc1 [Compound 1, (E)-2-(4-(Dimethylamino)styryl)-3-methylbenzo[d]thiazol-3-ium iodide] | 0.02 ± 0.013 µM | 1.52 ± 0.37 µM | – | – | – | – | – | – |
| C[n+]1c(/C=C/c2ccc(N(c3ccccc3)c3ccccc3)cc2)sc2ccccc21 [Compound 2] | 0.02 ± 0.011 µM | 5.13 ± 0.76 µM | 0.0281 ± 0.00473 µM | 182 | 33 | 252.0 | 15.1 | 0.93 ± 0.02 µM |
| C[n+]1c(/C=C/c2cc3c4c(c2)CCCN4CCC3)sc2ccccc21 [Compound 3] | 0.0065 ± 0.0029 µM | 0.08 ± 0.03 µM | – | – | – | – | – | – |
